For test [1], the system named is phosphorylation of eIF4E at ser209 in MV4.11 cell line. The test is described as follows: MNK cellular activity phospho-eIF4E detection assay (Alphascreen Surefire). As to conditions: Homo sapiens; MV4.11 cell line, phospho-eIF4E (ser209) Alphascreen Surefire; read-out: P(IC50) elF4E (converted). It is filed as cell-based. The gist of the method:
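AlphaScreen SureFire sandwich-immunoassay readout of phospho-eIF4E Ser209 in lysed MV4.11 cells; acceptor then donor beads, each 1.5 hr at room temperature. Signal normalised to untreated DMSO-only controls; duplicate curves, values averaged over at least 2 independent experiments.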
A general note: In Alpha technology, singlet oxygen from a donor bead excites a nearby acceptor bead.

The target in another test is T1, Full-length human MNK1 (Homo sapiens, UniProt Q9BUB5, T385D).
T1 construct: GST (N); purchased Carna Biosciences 02-145; host or cells: baculovirus expression system
T1 sequence (Q9BUB5 1-424 isoform Q9BUB5-2 T344D): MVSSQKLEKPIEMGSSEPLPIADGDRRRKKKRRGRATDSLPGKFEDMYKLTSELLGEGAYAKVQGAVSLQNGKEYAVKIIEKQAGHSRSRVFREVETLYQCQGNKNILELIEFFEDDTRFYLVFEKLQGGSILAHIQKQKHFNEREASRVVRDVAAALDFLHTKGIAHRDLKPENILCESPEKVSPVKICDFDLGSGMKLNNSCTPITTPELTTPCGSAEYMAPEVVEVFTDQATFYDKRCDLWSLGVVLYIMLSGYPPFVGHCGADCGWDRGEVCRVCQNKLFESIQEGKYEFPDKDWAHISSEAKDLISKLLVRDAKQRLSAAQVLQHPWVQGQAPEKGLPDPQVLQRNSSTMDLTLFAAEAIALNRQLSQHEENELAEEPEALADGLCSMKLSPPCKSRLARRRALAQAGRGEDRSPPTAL
The experiment in a line: MNK1 biochemical IC50 assay (Caliper Mobility Shift Assay). To be noted: read-out: P(IC50) MNK1 (converted).

The target in a further test is T2, Full-length human MNK2 (Homo sapiens, UniProt Q9HBH9, T379D).
T2 construct: GST (N); purchased Carna Biosciences 02-146; host or cells: baculovirus expression system
T2 sequence (Q9HBH9 whole entry T379D): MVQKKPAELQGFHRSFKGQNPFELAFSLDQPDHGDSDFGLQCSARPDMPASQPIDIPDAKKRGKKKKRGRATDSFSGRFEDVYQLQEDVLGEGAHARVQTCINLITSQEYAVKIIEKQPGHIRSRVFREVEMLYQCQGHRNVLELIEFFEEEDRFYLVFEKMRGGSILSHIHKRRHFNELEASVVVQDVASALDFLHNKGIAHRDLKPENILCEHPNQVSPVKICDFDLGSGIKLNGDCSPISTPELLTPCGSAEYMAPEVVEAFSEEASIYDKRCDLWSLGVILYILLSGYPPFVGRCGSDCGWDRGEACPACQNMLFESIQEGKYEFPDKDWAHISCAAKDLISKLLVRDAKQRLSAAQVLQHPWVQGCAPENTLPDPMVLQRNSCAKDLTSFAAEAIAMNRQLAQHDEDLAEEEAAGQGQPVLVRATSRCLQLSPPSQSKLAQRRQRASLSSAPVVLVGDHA
The test is described as follows: MNK2 biochemical IC50 assay (Caliper Mobility Shift Assay). To be noted: read-out: P(IC50) MNK2 (converted).

The source of these data is patent US10669284B2, “Fused thiazolopyrimidine derivatives as MNKS inhibitors” (LIFEARC, priority 2015, dated 2020).

Turning to `CC1CN(c2ncnc3sc(C(=O)NC4CCN(C)CC4)nc23)c2ccccc21` (stereo not drawn) [Example 126, 7-(3-Methylindolin-1-yl)-N-(1-methyl-4-piperidyl)thiazolo[5,4-d]pyrimidine-2-carboxamide], the 50% inhibitory concentration (IC50) (commonly the midpoint of a concentration-inhibition curve) in test [1] was 3.98 nM; on Full-length human MNK1 it was 3.98 nM; at Full-length human MNK2, 6.31 nM.
Turning to `CC1(CO)CN(c2ncnc3sc(C(=O)NCC4CCNCC4)nc23)c2ccccc21` (stereo not drawn) [Example 140], the 50% inhibitory concentration (IC50) was 39.8 nM in test [1], 6.31 nM on Full-length human MNK1 and 6.31 nM on Full-length human MNK2.
As to `CN(C)CCCNC(=O)c1nc2c(Nc3ccc(F)cc3O[C@@H]3CCCOC3)ncnc2s1` [Example 16, N-[3-(dimethylamino)propyl]-7-[4-fluoro-2-[(3R)-tetrahydropyran-3-yl]oxy-anilino]thiazolo[5,4-d]pyrimidine-2-carboxamide], the 50% inhibitory concentration (IC50) in test [1] is 158 nM; at Full-length human MNK1, 100 nM; on Full-length human MNK2, 100 nM.
For `O=C(Nc1ccc(Nc2ncnc3sc(C(=O)NCC4CCNCC4)nc23)cc1)Nc1cccc(C(F)(F)F)c1` [Example 49, N-(4-piperidylmethyl)-7-[4-[[3-(trifluoromethyl)phenyl]carbamoylamino]anilino]thiazolo[5,4-d]pyrimidine-2-carboxamide], the IC50 was 79.4 nM in test [1], 158 nM on Full-length human MNK1 and 63.1 nM at Full-length human MNK2.
The corresponding values for `CC(C)Oc1ncccc1Nc1ncnc2sc(C(=O)NCC3CCNCC3)nc12` [Example 55, 7-[(2-Isopropoxy-3-pyridyl)amino]-N-(4-piperidylmethyl)thiazolo[5,4-d]pyrimidine-2-carboxamide] are 316 nM, 316 nM and 251 nM.
On the same counts, the results for `CNCCCNC(=O)c1nc2c(N3CCc4ccccc43)ncnc2s1` [Example 97, 7-indolin-1-yl-N-[3-(methylamino)propyl] thiazolo[5,4-d]pyrimidine-2-carboxamide] are 15.8 nM, 7.94 nM and 7.94 nM.
Turning to `CN1CCN(c2nc3c(N4CCc5cc(F)ccc54)ncnc3s2)CC1` [Example 88, 7-(5-fluoroindolin-1-yl)-2-(4-methylpiperazin-1-yl)thiazolo[5,4-d]pyrimidine], the concentration for half-maximal inhibition (IC50) is 251 nM in test [1], 79.4 nM at Full-length human MNK1 and 50.1 nM at Full-length human MNK2.
The corresponding values for `CC(C)Oc1cc(F)ccc1Nc1ncnc2sc(C(=O)NC3CCN(C)CC3)nc12` [Example 32, 7-{[4-fluoro-2-(propan-2-yloxy)phenyl]amino}-N-(1-methylpiperidin-4-yl)[1,3]thiazolo[5,4-d]pyrimidine-2-carboxamide] are 39.8 nM, 50.1 nM and 39.8 nM.
On the same counts, the results for `CCOc1cc(F)ccc1Nc1ncnc2sc(C(=O)NCCCN(C)C)nc12` [Example 24, N-[3-(Dimethylamino)propyl]-7-(2-ethoxy-4-fluoro-anilino)thiazolo[5,4-d]pyrimidine-2-carboxamide] are 79.4 nM, 100 nM and 100 nM.
Regarding `CN1CCC2(CC1)CN(c1ncnc3sc(C(=O)NC4CCOCC4)nc13)c1ccccc12` [Example 40, 7-(1′-Methylspiro[indole-3,4′-piperidin]-1(2H)-yl)-N-(tetrahydro-2H-pyran-4-yl)[1,3]thiazolo[5,4-d]pyrimidine-2-carboxamide], the half-inhibitory concentration (IC50) in test [1] is 50.1 nM; on Full-length human MNK1 it was 12.6 nM; at Full-length human MNK2, 20 nM.
The corresponding values for `CC(C)Oc1cc(F)ccc1Nc1ncnc2sc(C(=O)NCCCN3CCCC3)nc12` [Example 13, 7-(4-fluoro-2-isopropoxy-anilino)-N-(3-pyrrolidin-1-ylpropyl)thiazolo[5,4-d]pyrimidine-2-carboxamide] are 39.8 nM, 50.1 nM and 39.8 nM.
